Measured values: ChEMBL document CHEMBL5537159, “Discovery and SAR of JTE-151: A Novel RORγ Inhibitor for Clinical Development” (J Med Chem, 2024)
Active and inactive are the calls of the source. The rule behind the calls is not given here.

What was measured:
[1] = Metabolic stability in human liver microsomes assessed as compound remaining at 5 umol/L measured after 60 mins by UPLC/MS analysis; type: ADME, Microsome; details: dose 5 µmol/L, read-out: Stability
[2] = Apparent permeability in human Caco-2 cells at 25 umol/L incubated for 2 hrs by LC/MS/MS analysis; type: ADME, cell-based; details: dose 25 µmol/L
[3] = Elimination half life in CD(SD) rat at 1 mg/kg, iv administered as single dose and measured after 24 hrs; type: ADME, organism-based; details: in vivo, read-out: beta t1/2 (converted)
[4] = Total body clearance in C57BL/6J mouse at 1 mg/kg, iv administered as single dose and measured after 24 hrs; type: ADME, organism-based; details: in vivo
[5] = MRT in C57BL/6J mouse at 3 mg/kg, po administered as single dose and measured after 24 hrs; type: ADME, organism-based; details: in vivo
[6] = Oral bioavailability in C57BL/6J mouse at 3 mg/kg administered as single dose and measured after 24 hrs; type: ADME, organism-based; details: in vivo
[7] = Total body clearance in Beagle dog at 1 mg/kg, iv administered as single dose and measured after 24 hrs; type: ADME, organism-based, Canis lupus familiaris; details: in vivo
[8] = Oral bioavailability in Beagle dog at 3 mg/kg administered as single dose and measured after 24 hrs; type: ADME, organism-based, Canis lupus familiaris; details: in vivo
[9] = Selectivity ratio of antagonist activity at human RORbeta to inhibition of RORgamma (unknown origin)
[10] = Selectivity ratio of antagonist activity at human AR to inhibition of RORgamma (unknown origin)
[11] = Selectivity ratio of antagonist activity at human ERalpha to inhibition of RORgamma (unknown origin)
[12] = Selectivity ratio of antagonist activity at human VDR to inhibition of RORgamma (unknown origin)
[13] = Selectivity ratio of antagonist activity at human PPARalpha to inhibition of RORgamma (unknown origin)
[14] = Selectivity ratio of antagonist activity at human PPARdelta to inhibition of RORgamma (unknown origin)
[15] = Selectivity ratio of antagonist activity at human PPARgamma to inhibition of RORgamma (unknown origin)
[16] = Selectivity ratio of agonist activity at human AR to inhibition of RORgamma (unknown origin)
[17] = Selectivity ratio of agonist activity at human ERalpha to inhibition of RORgamma (unknown origin)
[18] = Selectivity ratio of agonist activity at human FXR to inhibition of RORgamma (unknown origin)
[19] = Selectivity ratio of agonist activity at mouse LXRalpha to inhibition of RORgamma (unknown origin)
[20] = target: Adrenergic receptor alpha-1 (Rattus norvegicus, UniProt P15823+P23944+P43140); experiment: Inhibition of rat adrenergic alpha1 receptor; type: protein assay
[21] = target: Adrenergic receptor alpha-2 (Rattus norvegicus, UniProt P22086+P19328+P22909); experiment: Inhibition of rat adrenergic alpha2 receptor; type: protein assay
[22] = target: Beta-2 adrenergic receptor (Homo sapiens, UniProt P07550); experiment: Inhibition of human adrenergic beta2 receptor
Cannabinoid receptor 1 = Cannabinoid receptor 1 (Homo sapiens, UniProt P21554); experiment: Inhibition of human CB1 receptor
[23] = target: GABA-A receptor; anion channel; experiment: Inhibition of rat GABA-A receptor; type: protein-complex assay
[24] = Inhibition of rat GABA-B receptor
[25] = Inhibition of rat glutamate receptor
Histamine H3 receptor = Histamine H3 receptor (Homo sapiens, UniProt Q9Y5N1); experiment: Inhibition of human histamine H3 receptor
[26] = Inhibition of rat K+ ATP channel
[27] = Inhibition of rat opioid receptor
[28] = target: 5-hydroxytryptamine receptor 2A (Homo sapiens, UniProt P28223); experiment: Inhibition of human 5-HT2A receptor
[29] = target: 5-hydroxytryptamine receptor 3A (Homo sapiens, UniProt P46098); experiment: Inhibition of human 5-HT3 receptor
Acetylcholinesterase = Acetylcholinesterase (Electrophorus electricus, UniProt O42275); experiment: Inhibition of Electric eel AChE
[30] = target: Amine oxidase [flavin-containing] B (Homo sapiens, UniProt P27338); experiment: Inhibition of human MAO-B
[31] = Inhibition of rat nitric oxide synthase
Cytochrome P450 2B6 = Cytochrome P450 2B6 (Homo sapiens, UniProt P20813); experiment: Inhibition of CYP2B6 in human liver microsomes; type: ADME, Microsome
Cytochrome P450 3A4 = Cytochrome P450 3A4 (Homo sapiens, UniProt P08684); experiment: Inhibition of CYP3A4 in human liver microsomes using testosterone as substrate; type: ADME, Microsome
Cytochrome P450 3A5 [32] = target: T1, Cytochrome P450 3A5 (Homo sapiens, UniProt P20815); experiment: Inhibition of CYP3A5 in human liver microsomes using testosterone as substrate; type: ADME, Microsome
Cytochrome P450 3A5 [33] = target: T1, Cytochrome P450 3A5; experiment: Inhibition of CYP3A5 in human liver microsomes using midazolam as substrate; type: ADME, Microsome
Mus musculus = experiment: Anti-inflammatory activity in complete Freund's adjuvant/MOG (35 to 55 residues)/pertussis toxin-induced experimental autoimmune encephalomyelitis C57BL/6 mouse model assessed as reduction in paralysis by measuring reduction in EAE clinical score at 3 to 10 mg/kg, po administered once daily for 17 days and measured on day 18; type: functional, organism-based; details: dose 3-10 mg/kg, time 18.0 day
[34] = Genotoxicity in Salmonella typhimurium TA100 at 23 to 750 ug in presence of S9 fraction by bacterial reverse mutation test; type: toxicity, subcellular, Salmonella enterica subsp. enterica serovar Typhimurium; details: dose 23-750 µg
[35] = Genotoxicity in Salmonella typhimurium TA1537 at 23 to 750 ug in absence of S9 fraction by bacterial reverse mutation test; type: toxicity, Salmonella enterica subsp. enterica serovar Typhimurium; details: in vivo; dose 23-750 µg
[36] = Toxicity in CHL cells assessed as chromosomal aberration at 120 to 140 ug/ml incubated for 6 hrs in presence of S9 fraction; type: subcellular, Cricetulus griseus; details: chinese hamster, s9, 6 h, dose 120-140 µg/ml
[37] = Cmax in human at 30 […], po administered as single dose and measured upto 144 hrs; type: ADME, organism-based; details: in vivo
[38] = Cmax in human at 200 […], po administered as single dose and measured upto 144 hrs; type: ADME, organism-based; details: in vivo
[39] = Cmax in human at 1600 […], po administered as single dose and measured upto 144 hrs; type: ADME, organism-based; details: in vivo
[40] = Tmax in human at 400 […], po administered as single dose and measured upto 144 hrs; type: ADME, organism-based; details: in vivo
[41] = Tmax in human at 1000 […], po administered as single dose and measured upto 144 hrs; type: ADME, organism-based; details: in vivo
[42] = Tmax in human at 1600 […], po administered as single dose and measured upto 144 hrs; type: ADME, organism-based; details: in vivo
[43] = AUClast in human at 100 […], po administered as single dose and measured upto 144 hrs; type: ADME, organism-based; details: in vivo
[44] = AUClast in human at 200 mg/kg, po administered as single dose and measured upto 144 hrs; type: ADME, organism-based; details: in vivo
[45] = Elimination half life in human at 600 mg/kg, po administered as single dose and measured upto 144 hrs; type: ADME, organism-based; details: in vivo, read-out: beta t1/2 (converted)
[46] = Elimination half life in human at 1000 mg/kg, po administered as single dose and measured upto 144 hrs; type: ADME, organism-based; details: in vivo, read-out: beta t1/2 (converted)

T1 sequence (P20815 whole entry): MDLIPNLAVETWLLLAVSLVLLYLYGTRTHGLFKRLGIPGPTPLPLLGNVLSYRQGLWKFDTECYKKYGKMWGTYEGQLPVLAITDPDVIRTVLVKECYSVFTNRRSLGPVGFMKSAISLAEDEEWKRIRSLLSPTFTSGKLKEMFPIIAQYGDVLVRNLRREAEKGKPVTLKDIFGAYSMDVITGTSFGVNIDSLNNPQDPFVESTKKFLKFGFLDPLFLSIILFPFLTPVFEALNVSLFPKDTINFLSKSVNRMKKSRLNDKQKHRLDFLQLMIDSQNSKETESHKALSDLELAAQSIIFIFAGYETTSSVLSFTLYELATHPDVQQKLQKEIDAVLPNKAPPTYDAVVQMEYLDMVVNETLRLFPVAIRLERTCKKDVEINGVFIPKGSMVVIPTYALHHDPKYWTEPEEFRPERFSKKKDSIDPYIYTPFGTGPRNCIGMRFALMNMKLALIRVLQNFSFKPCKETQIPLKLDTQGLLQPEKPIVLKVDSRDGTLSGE
Sequence of Cytochrome P450 2B6 (P20813 whole entry): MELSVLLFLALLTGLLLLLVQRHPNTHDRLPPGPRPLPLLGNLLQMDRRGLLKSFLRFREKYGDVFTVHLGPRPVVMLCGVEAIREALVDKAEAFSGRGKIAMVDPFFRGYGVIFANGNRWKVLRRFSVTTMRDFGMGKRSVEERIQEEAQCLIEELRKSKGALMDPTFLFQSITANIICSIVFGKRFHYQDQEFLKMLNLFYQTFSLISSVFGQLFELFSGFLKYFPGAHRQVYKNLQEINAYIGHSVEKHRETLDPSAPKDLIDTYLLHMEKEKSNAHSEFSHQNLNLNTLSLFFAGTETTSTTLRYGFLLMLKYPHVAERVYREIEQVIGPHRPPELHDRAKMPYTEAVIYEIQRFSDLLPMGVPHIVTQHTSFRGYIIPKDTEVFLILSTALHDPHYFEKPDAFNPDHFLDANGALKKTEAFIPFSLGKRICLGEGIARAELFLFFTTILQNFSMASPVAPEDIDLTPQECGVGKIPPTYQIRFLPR
Sequence of Amine oxidase [flavin-containing] B (P27338 whole entry): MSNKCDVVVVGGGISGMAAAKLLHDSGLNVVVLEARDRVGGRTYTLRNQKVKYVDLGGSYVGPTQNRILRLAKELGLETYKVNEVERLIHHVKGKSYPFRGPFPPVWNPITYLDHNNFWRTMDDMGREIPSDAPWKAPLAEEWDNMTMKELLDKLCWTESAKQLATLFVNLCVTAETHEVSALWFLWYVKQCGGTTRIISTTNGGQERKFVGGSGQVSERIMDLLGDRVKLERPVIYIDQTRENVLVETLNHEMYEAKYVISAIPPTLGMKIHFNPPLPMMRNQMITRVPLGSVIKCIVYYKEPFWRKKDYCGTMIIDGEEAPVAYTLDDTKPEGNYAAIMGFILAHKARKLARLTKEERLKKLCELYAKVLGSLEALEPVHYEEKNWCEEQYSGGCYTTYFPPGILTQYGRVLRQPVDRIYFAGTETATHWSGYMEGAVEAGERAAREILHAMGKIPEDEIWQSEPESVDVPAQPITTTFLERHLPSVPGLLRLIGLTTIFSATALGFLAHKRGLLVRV
Sequence of Acetylcholinesterase (O42275 whole entry): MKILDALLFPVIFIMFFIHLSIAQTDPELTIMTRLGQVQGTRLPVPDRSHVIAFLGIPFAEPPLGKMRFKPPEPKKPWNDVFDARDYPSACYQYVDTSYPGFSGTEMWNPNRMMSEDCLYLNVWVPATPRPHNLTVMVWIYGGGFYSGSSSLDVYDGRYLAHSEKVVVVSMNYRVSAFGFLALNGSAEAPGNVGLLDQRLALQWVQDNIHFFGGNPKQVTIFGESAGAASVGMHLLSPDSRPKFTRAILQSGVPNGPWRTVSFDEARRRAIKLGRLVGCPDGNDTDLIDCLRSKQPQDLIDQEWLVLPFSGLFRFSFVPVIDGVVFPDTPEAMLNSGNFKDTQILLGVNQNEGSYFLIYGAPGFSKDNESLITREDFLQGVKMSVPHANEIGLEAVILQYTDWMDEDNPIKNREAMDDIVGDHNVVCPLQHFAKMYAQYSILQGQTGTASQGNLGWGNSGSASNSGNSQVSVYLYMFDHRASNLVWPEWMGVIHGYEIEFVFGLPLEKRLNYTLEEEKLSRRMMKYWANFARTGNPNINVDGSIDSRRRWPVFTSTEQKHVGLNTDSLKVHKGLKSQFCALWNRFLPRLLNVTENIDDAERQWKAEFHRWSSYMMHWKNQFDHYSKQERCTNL
Sequence of 5-hydroxytryptamine receptor 2A (P28223 whole entry): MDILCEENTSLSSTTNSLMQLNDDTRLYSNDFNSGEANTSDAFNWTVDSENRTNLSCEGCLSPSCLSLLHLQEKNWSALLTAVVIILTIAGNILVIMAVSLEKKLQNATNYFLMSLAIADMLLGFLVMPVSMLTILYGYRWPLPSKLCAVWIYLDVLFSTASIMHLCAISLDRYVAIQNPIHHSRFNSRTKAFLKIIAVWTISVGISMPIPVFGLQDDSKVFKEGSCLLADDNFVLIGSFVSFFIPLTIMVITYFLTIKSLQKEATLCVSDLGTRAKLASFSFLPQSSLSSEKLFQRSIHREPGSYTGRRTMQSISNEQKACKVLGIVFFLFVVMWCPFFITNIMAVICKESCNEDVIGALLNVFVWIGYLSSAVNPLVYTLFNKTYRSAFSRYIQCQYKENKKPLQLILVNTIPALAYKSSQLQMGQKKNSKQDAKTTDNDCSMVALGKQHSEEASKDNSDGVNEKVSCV
Sequence of Beta-2 adrenergic receptor (P07550 whole entry): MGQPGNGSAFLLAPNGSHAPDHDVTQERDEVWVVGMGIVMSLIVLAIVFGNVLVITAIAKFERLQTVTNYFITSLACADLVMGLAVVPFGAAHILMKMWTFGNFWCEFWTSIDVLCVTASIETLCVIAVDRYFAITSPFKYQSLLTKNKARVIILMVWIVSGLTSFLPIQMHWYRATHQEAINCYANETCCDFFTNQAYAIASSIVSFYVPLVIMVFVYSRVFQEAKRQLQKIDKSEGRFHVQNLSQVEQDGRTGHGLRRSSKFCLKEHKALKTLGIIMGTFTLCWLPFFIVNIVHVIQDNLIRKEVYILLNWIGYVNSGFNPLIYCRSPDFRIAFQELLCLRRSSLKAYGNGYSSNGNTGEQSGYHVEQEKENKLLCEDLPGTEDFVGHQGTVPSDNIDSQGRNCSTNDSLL
Sequence of 5-hydroxytryptamine receptor 3A (P46098 whole entry): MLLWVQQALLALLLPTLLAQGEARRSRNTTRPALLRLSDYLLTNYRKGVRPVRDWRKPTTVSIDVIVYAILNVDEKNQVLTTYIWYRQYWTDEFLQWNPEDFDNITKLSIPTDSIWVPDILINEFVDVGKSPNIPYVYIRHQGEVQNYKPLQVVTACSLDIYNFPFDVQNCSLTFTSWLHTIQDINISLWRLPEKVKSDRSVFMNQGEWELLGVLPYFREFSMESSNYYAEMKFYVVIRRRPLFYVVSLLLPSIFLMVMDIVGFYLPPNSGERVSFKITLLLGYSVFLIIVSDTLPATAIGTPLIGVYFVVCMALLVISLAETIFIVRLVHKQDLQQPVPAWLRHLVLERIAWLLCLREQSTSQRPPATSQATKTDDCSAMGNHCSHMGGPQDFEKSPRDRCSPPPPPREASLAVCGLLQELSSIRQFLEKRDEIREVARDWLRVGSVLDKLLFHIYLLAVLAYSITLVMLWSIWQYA
Sequence of Histamine H3 receptor (Q9Y5N1 whole entry): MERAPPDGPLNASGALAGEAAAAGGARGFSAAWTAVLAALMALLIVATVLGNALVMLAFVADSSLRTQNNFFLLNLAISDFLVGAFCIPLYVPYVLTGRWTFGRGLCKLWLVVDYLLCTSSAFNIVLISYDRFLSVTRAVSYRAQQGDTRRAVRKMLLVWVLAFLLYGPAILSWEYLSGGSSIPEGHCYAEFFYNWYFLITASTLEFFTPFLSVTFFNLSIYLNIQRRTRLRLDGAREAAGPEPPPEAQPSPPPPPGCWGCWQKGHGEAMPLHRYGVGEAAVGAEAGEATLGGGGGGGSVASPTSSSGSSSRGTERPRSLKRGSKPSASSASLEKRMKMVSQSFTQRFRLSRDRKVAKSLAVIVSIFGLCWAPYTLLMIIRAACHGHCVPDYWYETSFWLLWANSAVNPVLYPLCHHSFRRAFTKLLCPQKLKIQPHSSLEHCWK
Sequence of Cannabinoid receptor 1 (P21554 whole entry): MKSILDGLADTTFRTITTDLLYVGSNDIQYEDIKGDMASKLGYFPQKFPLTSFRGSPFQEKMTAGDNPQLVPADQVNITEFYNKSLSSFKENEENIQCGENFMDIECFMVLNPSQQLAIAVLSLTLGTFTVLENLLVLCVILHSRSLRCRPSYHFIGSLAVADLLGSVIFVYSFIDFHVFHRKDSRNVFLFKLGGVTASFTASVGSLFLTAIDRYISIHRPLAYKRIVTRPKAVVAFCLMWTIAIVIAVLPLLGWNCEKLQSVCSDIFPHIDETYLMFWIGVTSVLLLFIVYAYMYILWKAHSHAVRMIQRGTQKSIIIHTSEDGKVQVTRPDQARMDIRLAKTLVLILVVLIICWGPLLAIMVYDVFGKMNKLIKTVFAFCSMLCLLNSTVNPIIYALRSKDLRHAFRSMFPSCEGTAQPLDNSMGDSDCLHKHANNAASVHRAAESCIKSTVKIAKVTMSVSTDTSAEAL
Sequence of Cytochrome P450 3A4 (P08684 whole entry): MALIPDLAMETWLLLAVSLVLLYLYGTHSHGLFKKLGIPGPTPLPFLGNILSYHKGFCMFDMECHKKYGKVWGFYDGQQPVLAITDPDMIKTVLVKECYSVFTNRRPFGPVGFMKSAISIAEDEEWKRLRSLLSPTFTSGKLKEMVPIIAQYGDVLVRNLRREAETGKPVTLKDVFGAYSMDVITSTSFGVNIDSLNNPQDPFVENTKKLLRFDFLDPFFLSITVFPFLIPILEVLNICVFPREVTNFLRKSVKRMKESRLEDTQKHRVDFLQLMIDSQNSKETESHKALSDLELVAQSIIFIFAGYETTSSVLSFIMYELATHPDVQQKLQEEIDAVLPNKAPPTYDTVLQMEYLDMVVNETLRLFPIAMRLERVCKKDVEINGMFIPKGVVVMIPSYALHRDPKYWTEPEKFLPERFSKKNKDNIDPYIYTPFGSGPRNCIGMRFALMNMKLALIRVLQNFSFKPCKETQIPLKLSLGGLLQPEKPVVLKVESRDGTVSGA

Cc1ccc(NC(=O)C[C@H](CCC(=O)O)c2noc([C@H]3C[C@@H](CC(C)(C)C)C3)c2C2CC2)c(Cl)c1
remaining at 1 h, 5 µM [1]: 73% | Papp at 2 h, 25 µM [2]: 22.3 ×10⁻⁶ cm/s | half-life [3]: 180 min | clearance [4]: 0.5 mL/min/kg | MRT [5]: 5.8 h | bioavailability [6]: 98% | clearance [7]: 0.5 mL/min/kg | bioavailability [8]: 64% | Selectivity ratio [9]: > 100 | Selectivity ratio [10]: > 100 | Selectivity ratio [11]: > 100 | Selectivity ratio [12]: > 100 | Selectivity ratio [13]: > 100 | Selectivity ratio [14]: > 100 | Selectivity ratio [15]: > 100 | Selectivity ratio [16]: > 100 | Selectivity ratio [17]: > 100 | Selectivity ratio [18]: > 100 | Selectivity ratio [19]: > 100 | IC50 [20]: > 10 µM | IC50 [21]: > 10 µM | IC50 [22]: > 10 µM | IC50 (Cannabinoid receptor 1): > 10 µM | IC50 [23]: > 10 µM | IC50 [24]: > 10 µM | IC50 [25]: > 10 µM | IC50 (Histamine H3 receptor): > 10 µM | IC50 [26]: > 10 µM | IC50 [27]: > 10 µM | IC50 [28]: > 10 µM | IC50 [29]: > 10 µM | IC50 (Acetylcholinesterase): > 10 µM | IC50 [30]: > 10 µM | IC50 [31]: > 10 µM | IC50 (Cytochrome P450 2B6): > 10 µM | IC50 (Cytochrome P450 3A4): > 10 µM | IC50 (Cytochrome P450 3A5 [32]): > 10 µM | IC50 (Cytochrome P450 3A5 [33]): > 10 µM | Activity (Mus musculus): Active | Activity [34]: Non-Toxic | Activity [35]: Non-Toxic | Activity [36]: Non-Toxic | Cmax [37]: 1220 ng/mL | Cmax [38]: 8790 ng/mL | Cmax [39]: 60.7 µg/mL | Tmax [40]: 3 h | Tmax [41]: 3.5 h | Tmax [42]: 3.54 h | AUC(0-t) at 144 h [43]: 21200 ng·h/mL | AUC(0-t) at 144 h [44]: 49500 ng·h/mL | half-life [45]: 440 min | half-life [46]: 475 min
